Key:
[1] = measured Brain/Blood verification experiment in BALB/c mice; format: in vivo; conditions: mouse, 5 mg/kg, five minutes after administration, brain homogenate vs plasma
Description: The Brain/Blood value predicted with the above method was verified with an experiment using BALB/c mice. As test substances in the verification experiment, two compounds of SR-4277 and Famotidine were used. […] The test substance was administered in 5 mg/kg to the mice. The mice were anesthetized in advance with isoflurane, and exsanguination was performed from the vena cava of the mice five minutes after the administration. Brains were removed, and weights thereof were measured. After that, a brain homogenate was prepared. The collected blood was subjected to centrifugation, and plasma was thereby prepared. Concentrations of the test substance in plasma and the brain homogenate were measured with HPLC and MS.

OCT3 = OCT3 (Homo sapiens (Human), UniProt O75751); conditions: Non Patent Literature 1; read-out: IC50 (reported); cited from earlier work
ddY male mice = experiment: forced swimming test; format: in vivo; conditions: low dose administered alone (imipramine 4 mg/kg or OCT3 inhibitor 0.25 μl/hr)
Description: In this forced swimming test, mice or rats as test animals are forced to swim in water tanks from which the mice or rats cannot escape. Then, an immobility behavior of the test animals after an escape behavior thereof (a state in which only the head is above the water surface and the test animals are floating without moving the hands or feet) is observed. When the test animals are put into the water tanks again 24 hours or more later, the immobility behavior is expressed earlier than in the first experiment. Duration of this immobility behavior for a certain time (usually about 5 minutes) is relatively accurately reproduced.
Specifically, a test is performed as follows.
In an experiment, ddY male mice each weighing 28 to 33 g (Japan SLC, Inc.) are used. […] After being acquired, these mice are bred in a room in which temperature (22 to 24° C.), humidity (50 to 60%), and lighting (lighting 8:00 to 20:00) are controlled for three or more days. In the first forced swimming test, all the experimental mice are forced to swim in glass cylinders (diameter 15.5 cm, depth 17 cm, water depth 12 cm, water temperature 25° C.) for 300 seconds to measure immobility time. The mice are distributed into experimental groups (an OCT3 inhibitor-administrated group, a positive control group, and a negative control group) such that an average value of the immobility time is almost the same. […]

Sequence of OCT3 (O75751 whole entry): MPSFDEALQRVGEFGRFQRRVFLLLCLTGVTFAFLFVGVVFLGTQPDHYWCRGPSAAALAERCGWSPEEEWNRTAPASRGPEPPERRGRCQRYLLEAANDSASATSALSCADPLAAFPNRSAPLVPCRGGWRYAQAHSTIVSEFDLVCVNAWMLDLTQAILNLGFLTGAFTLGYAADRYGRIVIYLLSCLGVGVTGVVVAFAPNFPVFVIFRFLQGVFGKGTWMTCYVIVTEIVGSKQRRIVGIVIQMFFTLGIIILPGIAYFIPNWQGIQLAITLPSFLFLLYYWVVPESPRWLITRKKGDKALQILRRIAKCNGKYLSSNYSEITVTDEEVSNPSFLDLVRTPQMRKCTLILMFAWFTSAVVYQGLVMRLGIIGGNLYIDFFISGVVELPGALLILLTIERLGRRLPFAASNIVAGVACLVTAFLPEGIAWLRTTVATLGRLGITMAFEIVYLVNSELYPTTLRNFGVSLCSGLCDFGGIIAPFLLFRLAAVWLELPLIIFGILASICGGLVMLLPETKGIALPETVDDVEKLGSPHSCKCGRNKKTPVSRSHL

Kp at 5 min [1] | SMILES | IC50 (OCT3) | average value of the immobility time (ddY male mice)
0.1 | NC(N)=Nc1nc(CSCCC(N)=NS(N)(=O)=O)cs1 [Famotidine] | 20 µM | –
– | CN/C(=N/CCSCc1nc[nH]c1C)NC#N [cimetidine] | 240 µM | –
– | CN1C2CCCC1CC(NC(=O)c1nn(C)c3ccccc13)C2 (stereo not drawn) [granisetron] | ≤ 100 µM | –
– | CN(C)CCCN1c2ccccc2CCc2ccccc21 [imipramine] | – | about 200 seconds
– | Cn1cc(C(=O)[C@@H]2CCc3nc[nH]c3C2)c2ccccc21 [ramosetron] | ≤ 100 µM | –
